Target: T1, cynomolgus monkey 5α-reductase (Macaca fascicularis, UniProt Q28892)
T1 construct: microsomes were isolated from cynomolgus monkey prostate tissue; from tissue; host or cells: cynomolgus monkey prostate microsomes
T1 sequence (Q28892 1-254): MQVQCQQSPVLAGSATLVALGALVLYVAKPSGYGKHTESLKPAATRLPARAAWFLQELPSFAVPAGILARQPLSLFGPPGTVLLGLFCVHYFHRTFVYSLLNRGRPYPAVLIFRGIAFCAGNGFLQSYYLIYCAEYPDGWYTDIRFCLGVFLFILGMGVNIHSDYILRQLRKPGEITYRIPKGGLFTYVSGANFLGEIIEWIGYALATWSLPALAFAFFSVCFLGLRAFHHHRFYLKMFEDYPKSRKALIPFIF
Assay: Inhibition of cynomolgus monkey prostatic 5α-reductase (prostate microsomes)
Type: biochemical
Conditions: for IC50: testosterone at Km level
Protocol: The activity of the present compounds as inhibitors of steroid 5α-reductase was determined using microsomal preparations of the 5α-reductase enzyme from laboratory prostate tissue. Specifically, microsomes were isolated from cynomolgus monkey prostate tissue. Protein concentration of the microsomal preparations was determined prior to use of the samples. Individual assays of cynomolgus monkey prostatic 5α-reductase activity contained 0.1M potassium phosphate-sodium citrate buffer (K-Na buffer, 1:1), pH 5.6, 0.1% bovine serum albumin (w/v), 1.0 mM sodium EDTA, 7 to 96 μg of microsomal protein, 1.0 mM NADPH, 5.0 mM glucose-6-phosphate, 1 IU/mL glucose-6 -phosphate dehydrogenase, [1,2-^3 H]-testosterone (0.15 μCi), unlabeled testosterone to yield the desired concentration of substrate, and inhibitor which was dissolved in dimethyl sulfoxide (DMSO) then diluted in K-Na buffer to yield a final assay concentration of 0.1% (v/v) DMSO. The same buffer and DMSO without inhibitor were used in control assays. Background radioactivity was determined from assays containing all components except enzyme. Assays were performed in duplicate. The reaction was initiated by the addition of testosterone and incubated for 20 minutes at 25° C. in a Dubnoff® shaker incubator. Compound to be tested for inhibition was added simultaneously with testosterone. The total volume of the assay was 100 μL.
The 5α-reductase reactions were terminated by the addition of 5 mL chloroform-methanol (2:1) and 0.9 mL water. The carrier steroids were added in the form of 2.5 μg each of testosterone, dihydrotestosterone, and 3,17-androstanediol. […]

| Structure (SMILES) | IC50 [nM] | Ki (testosterone 0.5 Km to 8 Km) [nM] |
| --- | --- | --- |
| C[C@]12CC[C@H]3[C@@H](C=CC4=C(N)C(=O)CC[C@@]43C)[C@@H]1CC[C@@H]2OC1CC1 [Compound 1, 4-Amino-17β-(cyclopropyloxy)androsta-4,6-dien-3-one] | 2.8 | – |
| C[C@]12CC[C@H]3[C@@H](CCC4=C(N)C(=O)CC[C@@]43C)[C@@H]1CC[C@@H]2OC1CC1 [Compound 2, 4-Amino-17β-(cyclopropyloxy)androst-4-en-3-one] | 7.4 | 7.8 ± 0.7 |

— patent US5486511A, “4-amino-17β-(cyclopropyloxy)androst-4-en-3-one, 4-amino-17β-(cyclopropylamino)androst-4-en-3-one and related compounds as C17-20 lyase and 5α-reductase” (Merrell Dow Pharmaceuticals Inc., priority 1994, dated 1996)
